Experimental data published in ChEMBL document CHEMBL1201862, “PubChem BioAssay data set” (2004).
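Interpolation was linear, between the two tested concentrations surrounding the appropriate level; five concentrations were tested over 48 hours in 96-well plates. GI50 marks 50% less growth.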 Activity calls are given as the source filed them. No stated cut-off is given here; in the data, active = GI50 up to about 1.1 µM and inactive = higher.

Assays:
Assay in all cases: growth of human tumour cells (NCI), 48 h
[1] = test system: 786-0
[2] = test system: DU-145
[3] = test system: EKVX
[4] = test system: HCT-15
[5] = test system: HT-29
[6] = test system: MCF7
[7] = test system: MDA-MB-231
[8] = test system: NCI-H226
[9] = test system: NCI-H522
[10] = test system: OVCAR-4
[11] = test system: OVCAR-5
[12] = test system: SF-268
[13] = test system: SK-MEL-28
[14] = test system: SK-OV-3
[15] = test system: SW-620
[16] = test system: UACC-62
[17] = test system: OVCAR-3
[18] = test system: RPMI-8226
[19] = test system: K562

| SMILES | GI50 [1] | GI50 [2] | GI50 [3] | GI50 [4] [µM] | GI50 [5] | GI50 [6] | GI50 [7] | GI50 [8] | GI50 [9] | GI50 [10] | GI50 [11] | GI50 [12] | GI50 [13] | GI50 [14] | GI50 [15] | GI50 [16] | GI50 [17] | GI50 [18] | GI50 [19] |
| --- | --- | --- | --- | --- | --- | --- | --- | --- | --- | --- | --- | --- | --- | --- | --- | --- | --- | --- | --- |
| CNc1cc(Cl)ccc1C(=O)N1CCC[C@H]1CO | > 100 µM (inactive) | > 100 µM (inactive) | > 100 µM (inactive) | > 100 | > 100 µM (inactive) | > 100 µM (inactive) | > 100 µM (inactive) | 78.2 µM (inactive) | > 100 µM (inactive) | 29.2 µM (inactive) | > 100 µM (inactive) | > 100 µM (inactive) | > 100 µM (inactive) | > 100 µM (inactive) | > 100 µM (inactive) | > 100 µM (inactive) | – | – | – |
| COc1cc([C@@H]2c3cc4c(cc3[C@@H](c3c(O)cc(O)c5c3O[C@H](c3ccc(O)c(O)c3)[C@H](OC(=O)c3cc(O)c(O)c(O)c3)C5)[C@H]3COC(=O)[C@H]23)OCO4)cc(OC)c1O | 22.5 µM (inactive) | 32 µM (inactive) | 44.7 µM (inactive) | 40.8 | 25 µM (inactive) | 42 µM (inactive) | 57.8 µM (inactive) | – | 24 µM (inactive) | > 100 µM (inactive) | 39.4 µM (inactive) | 30.8 µM (inactive) | 79.8 µM (inactive) | 44.1 µM (inactive) | 44.4 µM (inactive) | 98.9 µM (inactive) | 28.2 µM (inactive) | 26.6 µM (inactive) | – |
| COc1cc(/N=C(\N)N=C(N)N)c2ncccc2c1 | 64.6 µM (inactive) | > 100 µM (inactive) | > 100 µM (inactive) | > 100 | > 100 µM (inactive) | > 100 µM (inactive) | > 100 µM (inactive) | 18.7 µM (inactive) | 72.8 µM (inactive) | > 100 µM (inactive) | > 100 µM (inactive) | 98.2 µM (inactive) | > 100 µM (inactive) | > 100 µM (inactive) | > 100 µM (inactive) | > 100 µM (inactive) | > 100 µM (inactive) | – | – |
| COc1cc(C(=O)Nc2cc(C(N)=O)cc(OC)c2OC)cc(NC(=O)/C=C/c2ccccc2)c1OC | – | > 100 µM (inactive) | > 100 µM (inactive) | > 100 | > 100 µM (inactive) | > 100 µM (inactive) | 20 µM (inactive) | – | 3.43 µM (inactive) | > 100 µM (inactive) | > 100 µM (inactive) | – | > 100 µM (inactive) | > 100 µM (inactive) | > 100 µM (inactive) | 15.2 µM (inactive) | 3.68 µM (inactive) | 44 µM (inactive) | > 100 µM (inactive) |
| O=C(CCc1ccc(O)cc1)NCCc1cccc(OCc2ccccc2)c1 | 40.4 µM (inactive) | 30.8 µM (inactive) | 31.5 µM (inactive) | 29 | 19.5 µM (inactive) | 27.9 µM (inactive) | 29 µM (inactive) | 29 µM (inactive) | 32.9 µM (inactive) | 31.6 µM (inactive) | 43.5 µM (inactive) | 26.5 µM (inactive) | 22.7 µM (inactive) | 27.7 µM (inactive) | – | 14.1 µM (inactive) | 17.2 µM (inactive) | – | 17.9 µM (inactive) |
| Cc1c2c(n(CCc3ccc(Cl)cc3)c1C)NN=C(C#N)S2(=O)=O | > 100 µM (inactive) | > 100 µM (inactive) | > 100 µM (inactive) | > 100 | > 100 µM (inactive) | > 100 µM (inactive) | > 100 µM (inactive) | > 100 µM (inactive) | – | > 100 µM (inactive) | > 100 µM (inactive) | 48.5 µM (inactive) | > 100 µM (inactive) | > 100 µM (inactive) | > 100 µM (inactive) | > 100 µM (inactive) | > 100 µM (inactive) | > 100 µM (inactive) | 84.7 µM (inactive) |
